Results from the supplement of paper PMC11061612.

Columns and labels:
Assay in all cases: combination Emax (second highest fraction inhibited in the dose matrix, 72 h); higher = more inhibition; extreme values may be limits of the assay
[1] = system: 8505C (Thyroid Gland Carcinoma)
Outline: (§1)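 After 24 hours at 37°C and 5% CO2 in 1536-well plates, cells in DMEM/F12 or RPMI plus 10% FBS received two-drug dose matrices for 72 hours. Viability came from CellTiter-Glo 2.0 luminescence and was scaled as inhibition, anchored at 0 by vehicle wells and at 1 by blank wells. Combination Emax is taken as the second-highest inhibition in the matrix, and Bliss excess as the observed combination effect less EA + EB − EA·EB, with EA and EB the single-agent effects.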

[2] = system: CHSA8926 (Chondrosarcoma)
Outline: as §1

[3] = system: G-361 (Melanoma)
Outline: as §1

[4] = system: H9 (T-Cell Non-Hodgkin's Lymphoma)
Outline: as §1

[5] = system: IM-95 (Gastric Carcinoma)
Outline: as §1

[6] = system: JHH-4 (Hepatocellular Carcinoma)
Outline: as §1

[7] = system: KMS-12-BM (Plasma Cell Myeloma)
Outline: as §1

[8] = system: KP-3 (Pancreatic Carcinoma)
Outline: as §1

[9] = system: KU812 (Chronic Myelogenous Leukemia)
Outline: as §1

[10] = system: KY821 (Acute Myeloid Leukemia)
Outline: as §1

[11] = system: MOG-G-CCM (Low Grade Glioma)
Outline: as §1

[12] = system: MOLM-13 (Acute Myeloid Leukemia)
Outline: as §1

[13] = system: NCCIT (Other Solid Carcinomas)
Outline: as §1

[14] = system: NCI-H520 (Squamous Cell Lung Carcinoma)
Outline: as §1

[15] = system: NCI-H526 (Small Cell Lung Carcinoma)
Outline: as §1

[16] = system: NCI-H929 (Plasma Cell Myeloma)
Outline: as §1

[17] = system: PC-3 (Prostate Carcinoma)
Outline: as §1

[18] = system: SJSA-1 (Osteosarcoma)
Outline: as §1

[19] = system: ST486 (Burkitt's Lymphoma)
Outline: as §1

Compound	combination Emax [1]	combination Emax [2]	combination Emax [3]	combination Emax [4]	combination Emax [5]	combination Emax [6]	combination Emax [7]	combination Emax [8]	combination Emax [9]	combination Emax [10]	combination Emax [11]	combination Emax [12]	combination Emax [13]	combination Emax [14]	combination Emax [15]	combination Emax [16]	combination Emax [17]	combination Emax [18]	combination Emax [19]
NC1(C(=O)N[C@@H](CCO)c2ccc(Cl)cc2)CCN(c2ncnc3[nH]ccc23)CC1 [Capivasertib] + CC(=O)c1c(C)c2cnc(Nc3ccc(N4CCNCC4)cn3)nc2n(C2CCCC2)c1=O [Palbociclib] (first compound max 10 µM, 7x7, partner max 10 µM)	0.187	0.48	0.443	0.985	0.423	0.466	0.734	0.25	0.552	0.757	0.501	0.98	0.537	0.717	0.15	1	0.376	0.51	0.549
NC1(C(=O)N[C@@H](CCO)c2ccc(Cl)cc2)CCN(c2ncnc3[nH]ccc23)CC1 [Capivasertib] + CC(C)n1c(=O)n(C)c2cnc3cc(F)c(-c4ccc(OCCCN5CCCCC5)nc4)cc3c21 [AZD1390] (first compound max 10 µM, 7x7, partner max 0.3 µM)	0.195	0.379	0.282	0.78	0.333	0.178	0.415	0.203	0.48	0.547	0.485	0.739	0.54	0.699	0.282	1	0.322	0.406	0.215
NC1(C(=O)N[C@@H](CCO)c2ccc(Cl)cc2)CCN(c2ncnc3[nH]ccc23)CC1 [Capivasertib] + CCN(CCO)CCCOc1ccc2c(Nc3cc(CC(=O)Nc4cccc(F)c4)[nH]n3)ncnc2c1 [AZD2811] (first compound max 10 µM, 7x7, partner max 1 µM)	0.304	0.46	0.46	1	0.427	0.226	0.522	0.284	0.727	0.613	0.67	0.993	0.624	0.688	0.588	1	0.401	0.489	0.834
NC1(C(=O)N[C@@H](CCO)c2ccc(Cl)cc2)CCN(c2ncnc3[nH]ccc23)CC1 [Capivasertib] + COc1nnc2ccc(N3CCC(c4ccc(OCCN5CCN(C)C(=O)[C@H]5C)cc4)CC3)nn12 [AZD5153] (first compound max 10 µM, 7x7, partner max 1 µM)	0.405	0.48	0.891	1	0.562	0.324	1	0.296	0.931	1	0.834	1	0.873	0.806	0.983	1	0.45	0.727	0.91
NC1(C(=O)N[C@@H](CCO)c2ccc(Cl)cc2)CCN(c2ncnc3[nH]ccc23)CC1 [Capivasertib] + C[C@@H]1COCCN1C2=NC(=NC(=C2)C3(CC3)[S@](=N)(=O)C)C4=C5C=CNC5=NC=C4 [AZD6738] (first compound max 10 µM, 7x7, partner max 10 µM)	0.475	0.54	0.614	1	0.456	0.309	0.823	0.318	0.851	1	0.787	0.982	0.66	0.711	0.779	1	0.593	0.713	0.881
NC1(C(=O)N[C@@H](CCO)c2ccc(Cl)cc2)CCN(c2ncnc3[nH]ccc23)CC1 [Capivasertib] + Cn1cnc2c(F)c(Nc3ccc(Br)cc3Cl)c(C(=O)NOCCO)cc21 [Selumetinib] (first compound max 10 µM, 7x7, partner max 10 µM)	0.5	0.48	0.83	1	0.502	0.663	0.427	0.417	0.983	0.891	0.548	0.986	0.55	0.548	0.249	1	0.258	0.658	0.559
Cc1nc(Nc2ncc(C(=O)Nc3c(C)cccc3Cl)s2)cc(N2CCN(CCO)CC2)n1 [Dasatinib] + CC(=O)Nc1cccc(-n2c(=O)n(C3CC3)c(=O)c3c(Nc4ccc(I)cc4F)n(C)c(=O)c(C)c32)c1 [Trametinib] (first compound max 2 µM, 7x7, partner max 1 µM)	0.628	0.823	0.753	0.892	0.288	1	0.396	0.61	1	0.691	0.741	0.955	0.366	0.233	0.0355	0.992	0.243	0.522	0.611
CS(=O)(=O)CCNCc1ccc(-c2ccc3ncnc(Nc4ccc(OCc5cccc(F)c5)c(Cl)c4)c3c2)o1 [Lapatinib] + C[C@@H](Oc1cc(-c2cnn(C3CCNCC3)c2)cnc1N)c1c(Cl)ccc(F)c1Cl [Crizotinib] (first compound max 10 µM, 7x7, partner max 10 µM)	0.721	0.928	0.972	0.983	0.854	0.546	0.965	0.557	0.999	0.986	0.745	0.996	0.599	0.659	0.732	0.97	0.494	0.908	0.942
CS(=O)(=O)CCNCc1ccc(-c2ccc3ncnc(Nc4ccc(OCc5cccc(F)c5)c(Cl)c4)c3c2)o1 [Lapatinib] + Cn1cnc2c(F)c(Nc3ccc(Br)cc3Cl)c(C(=O)NOCCO)cc21 [Selumetinib] (first compound max 10 µM, 7x7, partner max 10 µM)	–	–	–	–	–	–	–	0.367	0.963	–	0.257	–	0.255	0.357	0.164	0.707	–	0.422	0.825
CS(=O)(=O)CCNCc1ccc(-c2ccc3ncnc(Nc4ccc(OCc5cccc(F)c5)c(Cl)c4)c3c2)o1 [Lapatinib] + NC1(c2ccc(-c3nc4ccn5c(=O)[nH]nc5c4cc3-c3ccccc3)cc2)CCC1 [MK-2206] (first compound max 10 µM, 7x7, partner max 10 µM)	–	–	–	0.94	0.509	–	–	0.205	0.917	0.969	0.523	–	0.883	0.922	0.864	1	–	0.897	0.908
CC(=O)c1c(C)c2cnc(Nc3ccc(N4CCNCC4)cn3)nc2n(C2CCCC2)c1=O [Palbociclib] + CC1(C)CCC(CN2CCN(c3ccc(C(=O)NS(=O)(=O)c4ccc(NCC5CCOCC5)c([N+](=O)[O-])c4)c(Oc4cnc5[nH]ccc5c4)c3)CC2)=C(c2ccc(Cl)cc2)C1 [Venetoclax] (first compound max 10 µM, 7x7, partner max 1 µM)	0.047	0.188	0.488	0.626	0.105	0.328	1	0.0792	0.521	1	0.136	1	0.279	0.628	0.71	0.356	0.1	0.276	0.581
CC(=O)c1c(C)c2cnc(Nc3ccc(N4CCNCC4)cn3)nc2n(C2CCCC2)c1=O [Palbociclib] + Cc1c2c(nn1C)CSCc1cc(n(C)n1)CSc1cc(c3ccccc3c1)OCCCc1c(C(=O)O)n(C)c3c-2c(Cl)ccc13 [AZD5991] (first compound max 10 µM, 7x7, partner max 1 µM)	0.245	0.289	0.743	0.742	0.33	0.397	1	0.221	0.834	1	0.169	1	0.809	0.638	0.391	1	0.169	0.351	0.832
CC(=O)c1c(C)c2cnc(Nc3ccc(N4CCNCC4)cn3)nc2n(C2CCCC2)c1=O [Palbociclib] + Cn1cnc2c(F)c(Nc3ccc(Br)cc3Cl)c(C(=O)NOCCO)cc21 [Selumetinib] (first compound max 10 µM, 7x7, partner max 10 µM)	0.364	0.178	0.721	0.956	0.315	0.59	0.642	0.244	0.904	0.861	0.157	0.982	0.276	0.679	0.0977	0.79	0.145	0.424	0.79
CCc1c2c(nc3ccc(O)cc13)-c1cc3c(c(=O)n1C2)COC(=O)[C@]3(O)CC [SN-38] + O=C(c1cc(Cc2n[nH]c(=O)c3ccccc23)ccc1F)N1CCN(C(=O)C2CC2)CC1 [Olaparib] (first compound max 0.3 µM, 7x7, partner max 10 µM)	0.849	0.452	0.459	1	0.465	–	–	0.0787	0.756	0.998	0.49	–	0.274	0.834	1	0.95	–	0.804	0.702
